The series is described as follows: Measurement of 1-octanol/water partition coefficient (LogPOW) by HPLC, OECD Test Guideline 117. Format: physicochemical. The conditions noted are these: for LogPOW: 1-octanol/water partition coefficient calculated from HPLC elution time, OECD Test Guideline 117, ODS column, acetonitrile/0.6 mass % HClO4 aq. 1/1, 40° C.; for bioaccumulation potential (indicated by LogPOW value as compared to APFO): judged from LogPOW compared to APFO. On the procedure: In accordance with OECD Test Guideline 117, 1-octanol/water partition coefficient (LogPOW) of a fluorinated emulsifier was measured by using HPLC (high performance liquid chromatography).
Conditions for the measurement were as follows: column: TOSOH ODS-120T column (φ 4.6 mm×250 mm), eluent: acetonitrile/0.6 mass % of HClO4 aqueous solution=1/1 (vol/vol %), flow rate: […], sample amount: 300 μL, column temperature: 40° C., and detection light: UV 210 nm (WO2005-42593).
HPLC was carried out on standard substances (heptanoic acid, octanoic acid, nonanoic acid and decanoic acid) having known 1-octanol/water partition coefficients, and a calibration curve was prepared from the respective elution times and octanol/water partition coefficients of the respective standard substances. Based on this calibration curve, a value of partition coefficient (LogPOW) between 1-octanol and water was calculated from the elution time by HPLC of the fluorinated emulsifier.
Further, in general, in order to judge whether or not a chemical substance is apt to be accumulated in a living organism, a testing method for measurement of a partition coefficient (LogPOW) between 1-octanol and water, is stipulated. As the testing method, in addition to “Partition Coefficient (1-octanol/water) Shake Flask Method” as stipulated in OECD test guideline 107 and in Japanese Industrial Standards Z 7260-107 (2000), a HPLC method (high-performance liquid chromatography) as stipulated and published in OECD Test Guideline 117, is used. A compound having a large partition coefficient value has a large tendency for bioaccumulation, and a compound having a small value means a small tendency for bioaccumulation. In a case where the LogPOW value is less than 3.5, it is considered proper to judge that it is not a high-concentration, and bioaccumulation is also considered to be small.

For `N.O=C(O)C(F)(F)OC(F)(F)C(F)(F)OC(F)(F)C(F)(F)F` [CF3CF2OCF2CF2OCF2COONH4], the LogPOW is recorded as 3.13 and the “bioaccumulation potential (indicated by LogPOW value as compared to APFO)” value is listed as “low”.

In the case of `N.O=C(O)C(F)(F)C(F)(F)C(F)(F)C(F)(F)C(F)(F)C(F)(F)C(F)(F)F` [CF3(CF2)6COONH4, ammonium perfluorooctanoate], the LogPOW was 3.67.

Regarding `N.O=C(O)C(F)(OC(F)(F)C(F)(OC(F)(F)C(F)(F)F)C(F)(F)F)C(F)(F)F` (centres unmarked) [CF3CF2OCF(CF3)CF2OCF(CF3)COONH4], the LogPOW is reported as 4.03 and the “bioaccumulation potential (indicated by LogPOW value as compared to APFO)” value is reported as “high”.
